Laboratory results as given in US11021470B2, “2-substituted quinazoline compounds comprising a substituted heterocyclic group and methods of use thereof” (Araxes Pharma LLC, priority 2015, dated 2021).

Target: T1, KRAS G12C 1-169, his-tagged protein, GDP-loaded (Homo sapiens, UniProt P01116, G12C)
T1 construct: KRAS G12C 1-169, his-tagged protein, GDP-loaded
Assay: KRAS G12C covalent binding (% modification) by mass spectrometry, ten or three minute incubation
Details: covalent binding to KRAS G12C after a ten minute incubation period
Procedure: Test compounds were prepared as 10 mM stock solutions in DMSO (Fisher cat #BP-231-100). KRAS G12C 1-169, his-tagged protein, GDP-loaded was diluted to […] in buffer (20 mM Hepes, 150 mM NaCl, 1 mM MgCl2). Compounds were tested for activity as follows:
Compounds were diluted to 50× final test concentration in DMSO in 96-well storage plates. Compound stock solutions were vortexed before use and observed carefully for any sign of precipitation. Dilutions were as follow: • For 100 μM final compound concentration, compounds were diluted to 5000 μM (5 μl 10 mM compound stock+5 μl DMSO and mixed well by pipetting. • For 30 μM final compound concentration, compounds were diluted to 1500 μM (3 μl 10 mM compound stock+17 μl DMSO) and mixed well by pipetting. • For 10 μM final compound concentration, compounds were diluted to 500 μM (2 μl 10 mM compound stock+38 μl DMSO) and mixed well by pipetting. 49 μl of the stock protein solution was added to each well of a 96-well PCR plate (Fisher cat #1423027). 1 μl of the diluted 50× compounds were added to appropriate wells in the PCR plate using 12-channel pipettor. Reactions were mixed carefully and thoroughly by pipetting up/down with a 200 μl multi-channel pipettor. […] 5 μl of 2% formic acid (Fisher cat #A117) in DI H2O was then added to each well followed by mixing with a pipette. The plate was then resealed with aluminum seal and stored on dry ice until analyzed as described below.
The above described assays were analyzed by mass spectrometry according to one of the following two procedures:
The MS instrument is set to positive polarity, 2 GHz resolution, and low mass (1700) mode and allowed to equilibrate for 30 minutes. The instrument is then calibrated, switched to acquisition mode and the appropriate method loaded.
After another 30 minute equilibration time, a blank batch (i.e., buffer) is run to ensure equipment is operating properly. The samples are thawed at 37° C. for 10 minutes, briefly centrifuged, and transfer to the bench top. Wells A1 and H12 are spiked with 1 μL 500 μM internal standard peptide, and the plates centrifuged at 2000×g for 5 minutes. The method is then run and masses of each individual well recorded.
The masses (for which integration data is desired) for each well are pasted into the platemap and exported from the analysis. Masses for the internal standards are exported as well. The data at 50 ppm is extracted for the +19 charge state, and identity of well A1 is assigned using the internal standard spike and integrated. Peak data is exported as a TOF list and the above steps are repeated individually, for the +20, 21, 22, 23, 24, and 25 charge states.
The masses and peak intensities of KRAS G12C protein species were measured using a Dionex RSLCnano system (Thermo Scientific) connected to a Q Exactive Plus mass spectrometer (Thermo Scientific).
[…] of sample was each loaded onto a Aeris™ 3.6 μm WIDEPORE C4 200 Å, LC Column 50×2.1 mm column maintained at 40° C. at a flow rate of 600 μl min^−1 with […] (0.1% formic acid in acetonitrile). The liquid chromatography conditions were 20% solvent B for 1 min, 20% to 60% solvent B for 1.5 min, 60% to 90% solvent for 0.5 min, 90% solvent B for 0.2 min, 90% to 20% solvent B for 0.2 min, and then equilibrated for 1.6 min before the following sample injection. The flow rate was maintained at 600 μl min^−1 throughout the sample analysis.
The mass spectrometer was operated in profile mode at a resolution of 17500, 5 microscans, using 50 msec max injection time and an AGC target of 1e6, and a full mass range from 800-1850 m/z was recorded. The HCD trapping gas was optimized for maximum sensitivity for intact proteins. The ionization method was electrospray ionization, which used a spray voltage of 4 kV, sheath gas flow set to 50 au, auxiliary gas flow set to 10 au and sweep gas flow set to 1 au. […]

Compound | Binding %
C=CC(=O)N1CCN(c2nc(N3CC(N(C)C)C3)nc3c(F)c(-c4c(O)cccc4F)c(Cl)cc23)C[C@H]1C (atropisomer, axis not shown) [Compound 61, 1-((R)-4-((R)-6-chloro-2-(3-(dimethylamino)azetidin-1-yl)-8-fluoro-7-(2-fluoro-6-hydroxyphenyl)quinazolin-4-yl)-2-methylpiperazin-1-yl)prop-2-en-1-one] | ++ (++ indicates binding activity from 50 to 90%)
C=CC(=O)N1C[C@H](C)N(c2nc(N3CC(N(C)C)C3)nc3c(F)c(-c4c(O)cccc4F)c(Cl)cc23)C[C@H]1C [Compound 24, 1-((2R,5S)-4-(6-chloro-2-(3-(dimethylamino)azetidin-1-yl)-8-fluoro-7-(2-fluoro-6-hydroxyphenyl)quinazolin-4-yl)-2,5-dimethylpiperazin-1-yl)prop-2-en-1-one] | ++ (++ indicates binding activity from 50 to 90%)

Same assay, conditions: covalent binding to KRAS G12C, % modification after a three minute incubation period

Compound | Binding %
C=CC(=O)N1C[C@H](C)N(c2nc(OC3CCN(C)CC3)nc3c(F)c(-c4cc(O)cc5ccccc45)c(Cl)cc23)C[C@H]1C [Compound 245, 1-((2R,5S)-4-(6-chloro-8-fluoro-7-(3-hvdroxynaphthalen-1-yl)-2-((1-methylpiperidin-4-yl)oxy)quinazolin-4-yl)-2,5-dimethylpiperazin-1-yl)prop-2-en-1-one] | +++ (+++ indicates binding activity greater than 90%)
C=CC(=O)N1C[C@H](C)N(c2nc(OCCn3ccnc3CC)nc3c(F)c(-c4c(O)cccc4F)c(Cl)cc23)C[C@H]1C (atropisomer, axis not shown) [Compound 277, 1-((2R,5S)-4-(6-chloro-2-(2-(2-ethyl-1H-imidazol-1-yl)ethoxy)-8-fluoro-7-((S)-2-fluoro-6-hydroxyphenyl)quinazolin-4-yl)-2,5-dimethylpiperazin-1-yl)prop-2-en-1-one] | +++ (+++ indicates binding activity greater than 90%)
C=CC(=O)N1C[C@H](C)N(c2nc(OCC(C)(C)N)nc3c(F)c(-c4c(O)cccc4F)c(Cl)cc23)C[C@H]1C [Compound 274, 1-((2R,5S)-4-(2-(2-amino-2-methylpropoxy)-6-chloro-8-fluoro-7-(2-fluoro-6-hydroxyphenyl)quinazolin-4-yl)-2,5-dimethylpiperazin-1-yl)prop-2-en-1-one] | + (+ indicates binding activity greater than 0% and up to 50%)
C=CC(=O)N1C[C@H](C)N(c2nc(N3CC(N(C)C)C3)nc3c(F)c(-c4c(C)ccc5[nH]nc(C#N)c45)c(Cl)cc23)C[C@H]1C [Compound 292, 4-(4-((2S,5R)-4-acryloyl-2,5-dimethylpiperazin-1-yl)-6-chloro-2-(3-(dimethylamino)azetidin-1-yl)-8-fluoroquinazolin-7-yl)-5-methyl-1H-indazole-3-carbonitrile] | ++ (++ indicates binding activity from 50 to 90%)
1-((2R,5S)-4-(6-chloro-2-(2-(diethylamino)ethoxy)-8-fluoro-7-((S)-6-methyl-1H-indazol-7-yl)quinazolin-4-yl)-2,5-dimethylpiperazin-1-yl)prop-2-en-1-one [Compound 157] | + (+ indicates binding activity greater than 0% and up to 50%)
C=CC(=O)N1C[C@H](C)N(c2nc(OCCn3ccnc3C)nc3c(F)c(-c4c(O)cccc4F)c(Cl)cc23)C[C@H]1C (atropisomer, axis not shown) [Compound 264, 1-((2R,5S)-4-(6-chloro-8-fluoro-7-((S)-2-fluoro-6-hydroxyphenyl)-2-(2-(2-methyl-1H-imidazol-1-yl)ethoxy)quinazolin-4-yl)-2,5-dimethylpiperazin-1-yl)prop-2-en-1-one] | +++ (+++ indicates binding activity greater than 90%)
[2H]C([2H])([2H])N(C1CN(c2nc(N3C[C@@H](C)N(C(=O)C=C)C[C@@H]3C)c3cc(Cl)c(-c4c(C)ccc5[nH]ncc45)c(F)c3n2)C1)C([2H])([2H])[2H] (atropisomer, axis not shown) [Compound 226, 1-((2R,5S)-4-(6-chloro-2-(3-(bis(tridueteromethyl)amino)azetidin-1-yl)-8-fluoro-7-((R)-5-methyl-1H-indazol-4-yl)quinazolin-4-yl)-2,5-dimethylpiperazin-1-yl)prop-2-en-1-one] | +++ (+++ indicates binding activity greater than 90%)
C=CC(=O)N1C[C@H](C)N(c2nc(N3CC(N(C)C)C3)nc3c(F)c(-c4c(C)ccc5[nH]nc(CO)c45)c(Cl)cc23)C[C@H]1C [Compound 299, 1-((2R,5S)-4-(6-chloro-2-(3-(dimethylamino)azetidin-1-yl)-8-fluoro-7-(3-(hydroxymethyl)-5-methyl-1H-indazol-4-yl)quinazolin-4-yl)-2,5-dimethylpiperazin-1-yl)prop-2-en-1-one] | ++ (++ indicates binding activity from 50 to 90%)
C=CC(=O)N1C[C@H](C)N(c2nc(N3CC(N(C)C)C3)nc3c(F)c(-c4n[nH]c5ccccc45)c(Cl)cc23)C[C@H]1C [Compound 295, 1-((2R,5S)-4-(6-chloro-2-(3-(dimethylamino)azetidin-1-yl)-8-fluoro-7-(1H-indazol-3-yl)quinazolin-4-yl)-2,5-dimethylpiperazin-1-yl)prop-2-en-1-one] | + (+ indicates binding activity greater than 0% and up to 50%)
C=CC(=O)N1C[C@H](C)N(c2nc(N3CC(N(C)C)C3)nc3c(F)c(-c4c(F)ccc(Cl)c4O)c(Cl)cc23)C[C@H]1C [Compound 260, 1-((2R,5S)-4-(6-chloro-7-(3-chloro-6-fluoro-2-hydroxyphenyl)-2-(3-(dimethylamino)azetidin-1-yl)-8-fluoroquinazolin-4-yl)-2,5-dimethylpiperazin-1-yl)prop-2-en-1-one] | ++ (++ indicates binding activity from 50 to 90%)
C=CC(=O)N1C[C@H](C)N(c2nc(OCCn3ccnc3C#N)nc3c(F)c(-c4c(O)cccc4F)c(Cl)cc23)C[C@H]1C (atropisomer, axis not shown) [Compound 278, 1-(2-(4-((2S,5R)-4-acryloyl-2,5-dimethylpiperazin-1-yl)-6-chloro-8-fluoro-7-((S)-2-fluoro-6-hydroxyphenyl)quinazolin-2-yloxy)ethyl)-1H-imidazole-2-carbonitrile] | ++ (++ indicates binding activity from 50 to 90%)
C=CC(=O)N1C[C@H](C)N(c2nc(N3CC(N(C)C)C3)nc3c(F)c(-c4c(C)ccc5[nH]ncc45)c(Cl)cc23)C[C@H]1C (atropisomer, axis not shown) [Compound 130, 1-((2R,5S)-4-(6-chloro-2-(3-(dimethylamino)azetidin-1-yl)-8-fluoro-7-((R)-5-methyl-1H-indazol-4-yl)quinazolin-4-yl)-2,5-dimethylpiperazin-1-yl)prop-2-en-1-one] | +++ (+++ indicates binding activity greater than 90%)
C=CC(=O)N1C[C@H](C)N(c2nc(N3CC(N(C)C)C3)nc3c(F)c(-c4c(C)ccc5[nH]nc(I)c45)c(Cl)cc23)C[C@H]1C [Compound 286, 1-((2R,5S)-4-(6-chloro-2-(3-(dimethylamino)azetidin-1-yl)-8-fluoro-7-(3-iodo-5-methyl-1H-indazol-4-yl)quinazolin-4-yl)-2,5-dimethylpiperazin-1-yl)prop-2-en-1-one] | +++ (+++ indicates binding activity greater than 90%)
